These compounds were tested on bronchoconstriction induced by PAF (assay: Effect on bronchoconstriction induced by platelet activating factor (PAF) in guinea pigs (Konzett-Rossler method)). Details: Cavia porcellus, po, 30 mg/kg orally 1 hour before PAF (1 μg/kg i.v.), suspended in 5% gum arabic, recorded for 15 minutes, male Hartley guinea pigs.
Format: in vivo, guinea pig (male Hartley)
Description: Effect On bronchoconstriction Induced By Platelet Activating Factor (PAF) In Guinea Pigs
Male Hartley guinea pigs (body weight 500 g) were used. The bronchoconstriction reaction in the guinea pig which has intravenously received PAF (1 μg/Kg) was measured by the Konzett-Rossler method. The trachea of the guinea pig with its back fixed was incised under anesthesia condition with urethane (intraperitoneal injection, 1.50 g/kg) and connected with an artificial respirator via a cannula. The branch of the tracheal cannula was connected with a transducer (7020 type, Ugobasile). Air was sent to the trachea at the volume of 3-7 ml/stroke, at the rate of 70 strokes/min. at load pressure of 10 cm H2 O to lung and overflowed air volume was recorded with Rectegraph (Recte-Hori-8s, Sanei Sokuki) via the transducer. After the guinea pig was treated with gallamine (1 mg/kg, i.v.), PAF (1 μg/kg) dissolved in a physiological saline solution was administered to the guinea pig via a jugular venous cannula and the bronchoconstriction reaction induced thereby was recorded for 15 minutes. The drug (30 mg/kg) suspended in a 5% gum arabic solution was administered orally 1 hour before the injection of PAF.

Compound	inhibition in vivo at 30 mg/kg [%]
NS(=O)(=O)CCCSc1ccc2nccn2n1 [Example 1, 6-(3-sulfamoylpropylthio)imidazo [1,2-b]pyridazine]	71
CN(C)S(=O)(=O)CCCSc1ccc2nccn2n1 [Example 9]	52
O=S(=O)(CCCSc1ccc2nccn2n1)NCCc1cccnc1 [Example 19]	41
Cn1cccc1CCNS(=O)(=O)CCCSc1ccc2nccn2n1 [Example 20]	41
O=S(=O)(CCSc1ccc2nccn2n1)NC1CC1 [Example 25, 6-[2-(N-cyclopropylsulfamoyl)ethylthio] imidazo[1,2-b]pyridazine]	47
NS(=O)(=O)CCSc1ccc2nccn2n1 [Example 26]	42
NS(=O)(=O)CCCCCSc1ccc2nccn2n1 [Example 29, 6-(5-sulfamoylpentylthio)imidazo[1,2-b]pyridazine]	51
NS(=O)(=O)CCCCSc1ccc2nccn2n1 [Example 30]	73
CC(CSc1ccc2nccn2n1)CS(N)(=O)=O (stereo not drawn) [Example 31]	74
CCC(CSc1ccc2nccn2n1)CS(N)(=O)=O (stereo not drawn) [Example 32]	80
NS(=O)(=O)CC(CSc1ccc2nccn2n1)c1ccccc1 (stereo not drawn) [Example 33]	52
NS(=O)(=O)CCC(Sc1ccc2nccn2n1)c1ccccc1 (stereo not drawn) [Example 34]	38
C[C@@H](CSc1ccc2nccn2n1)CS(N)(=O)=O [Example 35, (+)-6-[(2-(S)-methyl-3-sulfamoylpropyl)thio]imidazo[1,2-b]pyridazine]	79
CC(C)(CSc1ccc2nccn2n1)CS(N)(=O)=O [Example 37, 6-[(3-sulfamoyl-2,2-dimethylpropyl)thio]imidazo[1,2-b]pyridazine]	99
CC(C)(COc1ccc2nccn2n1)CS(N)(=O)=O [Example 39, 6-[(2,2-dimethyl-3-sulfamoylpropyl)oxy]imidazo[1,2-b]pyridazine]	72
C[C@H](COc1ccc2nccn2n1)CS(N)(=O)=O [Example 40, (+)-6-[(2-(R)-methyl-3-sulfamoylpropyl)oxy]imidazo[1,2-b]pyridazine]	53
NS(=O)(=O)CCCOc1ccc2nccn2n1 [Example 41]	66
CCC(COc1ccc2nccn2n1)CS(N)(=O)=O (stereo not drawn) [Example 42]	55
NS(=O)(=O)CCCSc1ccc2ncc(Cl)n2n1 [Example 43, 3-chloro-6[(3-sulfamoylpropyl)thio]imidazo[1,2-b]pyridazine]	54
CC(C)(COc1ccc2ncc(Cl)n2n1)CS(N)(=O)=O [Example 45, 3-chloro-6-[(2,2-dimethyl-3-sulfamoylpropyl)oxy]imidazo[1,2-b]pyridazine]	50
CCC(CC)(COc1ccc2nccn2n1)CS(N)(=O)=O [Example 47, 6-[(2,2-diethyl-3-sulfamoylpropyl)oxy]imidazo[1,2-b]pyridazine]	90

From patent US5155108A, “Imidazopyridazines and use as antiasthmatic agents” (Takeda Chemical Industries, Ltd., priority 1990, dated 1992)
